Source: patent publication US20200345010A1, “FUNGICIDAL OXADIAZOLES” (FMC Corporation, priority 2019, published 2020)
Marks after values point to notes of the source that are not given here.

Key:
Phakopsora pachyrhizi = assay: Test A: Asian soybean rust control on soybean seedlings; type: in vivo; details: 10 ppm test suspension; soybean seedlings sprayed the day before inoculation; 100 = 100% disease control, 0 = none
From the text: (§1) General protocol for preparing test suspensions for Tests A-C: the test compounds were first dissolved in acetone in an amount equal to 3% of the final volume and then suspended at the desired concentration (in ppm) in acetone and purified water (50/50 mix by volume) containing 250 ppm of the surfactant PEG400 (polyhydric alcohol esters). The resulting test suspensions were then used in Tests A-C.
The test solution was sprayed to the point of run-off on soybean seedlings. The following day the seedlings were inoculated with a spore suspension of Phakopsora pachyrhizi (the causal agent of Asian soybean rust) and incubated in a saturated atmosphere at 22° C. for 24 h, and then moved to a growth chamber at 22° C. for 8 days, after which time visual disease ratings were made.
(§2) A rating of 100 indicates 100% disease control and a rating of 0 indicates no disease control (relative to the controls). A dash (-) indicates the compound was not tested.

Zymoseptoria tritici = assay: Test B: wheat leaf blotch control on wheat seedlings; type: in vivo; details: 250 ppm test suspension (asterisk); wheat seedlings sprayed the day before inoculation; 100 = 100% disease control, 0 = none
From the text: as §1
(§3) The test solution was sprayed to the point of run-off on wheat seedlings. The following day the seedlings were inoculated with a spore suspension of Zymoseptoria tritici (the causal agent of wheat leaf blotch) and incubated in a saturated atmosphere at 24° C. for 48 h, and then moved to a growth chamber at 20° C. for 17 days, after which time disease ratings were made.
as §2

[1] = test system: Puccinia recondita f. sp. tritici; assay: Test C: wheat leaf rust control on wheat seedlings; type: in vivo; details: wheat seedlings sprayed the day before inoculation, 100 = 100% disease control, 0 = none
From the text: as §1
as §3, with “Puccinia recondita f. sp.” for “Zymoseptoria”, “rust)” for “blotch)”, “20°” for “24°”, “24” for “48”, “7” for “17”
as §2

Row | Compound | Test A disease control rating (Phakopsora pachyrhizi) [%] | Test B disease control rating (Zymoseptoria tritici) | melting point [°C] | Test C disease control rating ([1]; 10 ppm test suspension) [%] | Test C disease control rating ([1]; 50 ppm test suspension)
1 | O=S1(=Nc2ccc(-c3noc(C(F)(F)F)n3)cc2)c2ccccc2-c2ccccc21 [Compound 38] | 0 | 1* % | 230 to 234 | 0 | 
2 | O=S1(=NCc2ccc(-c3noc(C(F)(F)F)n3)cc2)c2ccccc2-c2ccccc21 [Compound 41] | 97 | 86* % | 120 to 124 | 86 | 
3 | O=S1(=NCc2ccc(-c3noc(C(F)(F)F)n3)cc2)CCCC1 [Compound 51] | 100 | 52* % | 58 to 63 |  | 100** %
